Target: T1, NLRP3 (Homo sapiens, UniProt Q96P20)
T1 construct: host or cells: THP-1 cells differentiated with PMA
Assay: IL-1β Secretion Assay (NLRP3-dependent IL1β secretion in THP1 cells)
Format: cell-based
Conditions: PMA-differentiated THP-1 cells; compounds incubated 20 h; 2.5 μM Nigericin 3 h; HTRF IL-1β readout; read-out: IC50 IL-1β Inhibition
Method in brief: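 THP-1 cells differentiated with 100 ng/mL PMA for 24 h, then given compound (7-point 3-fold series, 1:200 from DMSO) for 20 h in RPMI+5% FBS. NLRP3 activated with 2.5 μM nigericin for 3 h; secreted IL-1β measured by HTRF; IC50 from logistic fit of % inhibition.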

T1 sequence (Q96P20 whole entry): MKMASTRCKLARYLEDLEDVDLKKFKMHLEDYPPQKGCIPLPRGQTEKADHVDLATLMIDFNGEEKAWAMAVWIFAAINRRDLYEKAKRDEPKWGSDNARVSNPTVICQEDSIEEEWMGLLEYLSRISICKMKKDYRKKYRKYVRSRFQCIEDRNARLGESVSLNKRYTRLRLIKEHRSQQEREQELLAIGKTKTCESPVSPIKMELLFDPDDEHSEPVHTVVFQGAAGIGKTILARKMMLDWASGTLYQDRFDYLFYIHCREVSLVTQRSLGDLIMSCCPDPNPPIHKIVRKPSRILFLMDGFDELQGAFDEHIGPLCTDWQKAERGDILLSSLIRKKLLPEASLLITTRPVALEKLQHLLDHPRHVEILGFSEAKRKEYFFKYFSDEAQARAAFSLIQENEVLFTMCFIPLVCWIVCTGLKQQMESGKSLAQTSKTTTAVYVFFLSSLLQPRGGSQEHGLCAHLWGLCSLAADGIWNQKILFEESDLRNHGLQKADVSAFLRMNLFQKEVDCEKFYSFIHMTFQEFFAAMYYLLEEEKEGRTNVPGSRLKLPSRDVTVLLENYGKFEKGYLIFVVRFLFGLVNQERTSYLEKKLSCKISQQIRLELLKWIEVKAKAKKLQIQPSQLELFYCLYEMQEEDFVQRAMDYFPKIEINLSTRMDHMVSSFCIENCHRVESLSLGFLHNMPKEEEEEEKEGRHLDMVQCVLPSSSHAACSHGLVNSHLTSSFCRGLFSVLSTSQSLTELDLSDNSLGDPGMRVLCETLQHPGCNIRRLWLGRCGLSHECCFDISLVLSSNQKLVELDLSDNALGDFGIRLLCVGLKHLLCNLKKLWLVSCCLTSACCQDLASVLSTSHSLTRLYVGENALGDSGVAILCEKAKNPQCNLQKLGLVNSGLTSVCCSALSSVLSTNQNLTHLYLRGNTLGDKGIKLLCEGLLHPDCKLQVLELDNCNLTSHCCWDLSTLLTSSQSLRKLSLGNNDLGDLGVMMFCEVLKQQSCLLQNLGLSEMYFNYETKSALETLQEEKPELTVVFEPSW

Row | SMILES | IC50 [nM]
1 | COc1ccc(-c2nnc(N[C@H]3C[C@@](C)(O)C3)n3cncc23)c(OCC(F)(F)F)c1 [Compound 305, (1s,3s)-3-({1-[4-methoxy-2-(2,2,2-trifluoroethoxy)phenyl]imidazo[1,5-d][1,2,4]triazin-4-yl}amino)-1-methylcyclobutan-1-ol] | 10 to 100
2 | Cc1ccc(-c2nnc(N[C@H]3CCCC[C@@H]3O)n3cccc23)c(OC(F)F)c1 [Compound 80, (1S,2S)-2-({1-[2-(difluoromethoxy)-4-methylphenyl]pyrrolo[1,2-d][1,2,4]triazin-4-yl}amino)cyclohexan-1-ol] | 10 to 100
3 | CCN1CCC[C@@H](Nc2nnc(-c3ccc(C(F)(F)F)cc3C(N)=O)c3cc(C)nn23)C1 [Compound 372, 2-(7-{[(3R)-1-ethylpiperidin-3-yl]amino}-2-methylpyrazolo[1,5-d][1,2,4]triazin-4-yl)-5-(trifluoromethyl)benzamide] | 10 to 100
4 | Cc1ccc(-c2nnc(N[C@H]3C[C@@H](CO)C3)n3cncc23)c(OC(F)F)c1 [Compound 183, [(1s,3s)-3-({1-[2-(difluoromethoxy)-4-methylphenyl]imidazo[1,5-d][1,2,4]triazin-4-yl}amino)cyclobutyl]methanol] | 10 to 100
5 | CCN1CCC[C@@H](Nc2nnc(-c3ccc(OC)cc3Cl)c3c(F)ccn23)C1 [Compound 82, 1-(2-chloro-4-methoxyphenyl)-N-[(3R)-1-ethylpiperidin-3-yl]-8-fluoropyrrolo[1,2-d][1,2,4]triazin-4-amine] | 1 to 10
6 | COc1ccc(-c2nnc(N[C@H]3C[C@@](C)(O)C3)n3cncc23)c(C(F)(F)F)c1 [Compound 214, (1s,3s)-3-({1-[4-methoxy-2-(trifluoromethyl)phenyl]imidazo[1,5-d][1,2,4]triazin-4-yl}amino)-1-methylcyclobutan-1-ol] | 1 to 10
7 | COCC1CC(Nc2nnc(-c3ccc(OC)cc3CC(F)(F)F)c3cncn23)C1 (stereo not drawn) [Compound 326, N-[3-(methoxymethyl)cyclobutyl]-1-[4-methoxy-2-(2,2,2-trifluoroethyl)phenyl]imidazo[1,5-d][1,2,4]triazin-4-amine] | 10 to 100
8 | COc1ccc(-c2nnc(NCc3nccn3C)n3cccc23)c(OC(F)(F)F)c1 [Compound 69, 1-[4-methoxy-2-(trifluoromethoxy)phenyl]-N-[(1-methyl-1H-imidazol-2-yl)methyl]pyrrolo[1,2-d][1,2,4]triazin-4-amine] | 10 to 100
9 | O[C@H]1CCCC[C@@H]1Nc1nnc(-c2ccc(C(F)(F)F)cc2C(F)(F)F)c2cccn12 [Compound 99, (1S,2S)-2-({1-[2,4-bis(trifluoromethyl)phenyl]pyrrolo[1,2-d][1,2,4]triazin-4-yl}amino)cyclohexan-1-ol] | 100 to 300
10 | O[C@H]1CCCC[C@@H]1Nc1nnc(-c2ccc(C(F)(F)F)cc2C(F)(F)F)c2cncn12 [Compound 293, (1S,2S)-2-({1-[2,4-bis(trifluoromethyl)phenyl]imidazo[1,5-d][1,2,4]triazin-4-yl}amino)cyclohexan-1-ol] | 10 to 100
11 | COc1ccc(-c2nnc(NCCO)n3cccc23)c(OC(F)(F)F)c1 [Compound 64, 2-({1-[4-methoxy-2-(trifluoromethoxy)phenyl]pyrrolo[1,2-d][1,2,4]triazin-4-yl}amino)ethan-1-ol] | 10 to 100
12 | COc1ccc(-c2nnc(N[C@@H]3CCCN(C)C3)n3cncc23)c(OC(F)F)c1 [Compound 216, 1-[2-(difluoromethoxy)-4-methoxyphenyl]-N-[(3R)-1-methylpiperidin-3-yl]imidazo[1,5-d][1,2,4]triazin-4-amine] | 1 to 10
13 | CCN1C[C@H](F)C[C@@H](Nc2nnc(-c3ccc(OC)cc3OC(F)(F)F)c3c(F)ccn23)C1 [Compound 53, N-[(3R,5R)-1-ethyl-5-fluoropiperidin-3-yl]-8-fluoro-1-[4-methoxy-2-(trifluoromethoxy)phenyl]pyrrolo[1,2-d][1,2,4]triazin-4-amine] | 1 to 10
14 | Cc1ccc(-c2nnc(N[C@@H]3CCCN(C)C3)n3cc(C)cc23)c(C(F)F)c1 [Compound 23, 1-[2-(difluoromethyl)-4-methylphenyl]-7-methyl-N-[(3R)-1-methylpiperidin-3-yl]pyrrolo[1,2-d][1,2,4]triazin-4-amine] | 1 to 10
15 | O=C1NCCC1Nc1nnc(-c2ccc(Cl)cc2OC(F)(F)F)c2cncn12 (stereo not drawn) [Compound 287, 3-({1-[4-chloro-2-(trifluoromethoxy)phenyl]imidazo[1,5-d][1,2,4]triazin-4-yl}amino)pyrrolidin-2-one] | 1 to 10
16 | C[C@]1(O)C[C@@H](Nc2nnc(-c3ccc(Cl)cc3OC(F)F)c3cncn23)C1 [Compound 194, (1s,3s)-3-({1-[4-chloro-2-(difluoromethoxy)phenyl]imidazo[1,5-d][1,2,4]triazin-4-yl}amino)-1-methylcyclobutan-1-ol] | 1 to 10
17 | O[C@@H]1CCCC[C@H]1Nc1nnc(-c2ccc(Br)cc2OC(F)(F)F)c2cncn12 [Compound 307, (1R,2R)-2-({1-[4-bromo-2-(trifluoromethoxy)phenyl]imidazo[1,5-d][1,2,4]triazin-4-yl}amino)cyclohexan-1-ol] | 1 to 10
18 | CCN1C[C@H](F)C[C@@H](Nc2nnc(-c3ccc(C(F)(F)F)cc3C(F)(F)F)c3c(F)ccn23)C1 [Compound 32, 1-[2,4-bis(trifluoromethyl)phenyl]-N-[(3R,5R)-1-ethyl-5-fluoropiperidin-3-yl]-8-fluoropyrrolo[1,2-d][1,2,4]triazin-4-amine] | 1 to 10
19 | CN1C[C@H](F)C[C@@H](Nc2nnc(-c3ccc(C(F)(F)F)cc3C(F)(F)F)c3cncn23)C1 [Compound 252, 1-[2,4-bis(trifluoromethyl)phenyl]-N-[(3R,5R)-5-fluoro-1-methylpiperidin-3-yl]imidazo[1,5-d][1,2,4]triazin-4-amine] | 1 to 10
20 | COc1ccc(-c2nnc(NC3CCNC3=O)n3cccc23)c(OC(F)F)c1 (stereo not drawn) [Compound 174, 3-({1-[2-(difluoromethoxy)-4-methoxyphenyl]pyrrolo[1,2-d][1,2,4]triazin-4-yl}amino)pyrrolidin-2-one] | 10 to 100
21 | COc1ccc(-c2nnc(N[C@@H]3CCOC[C@H]3O)n3cncc23)c(OC(F)(F)F)c1 [Compound 292, (3S,4R)-4-({1-[4-methoxy-2-(trifluoromethoxy)phenyl]imidazo[1,5-d][1,2,4]triazin-4-yl}amino)oxan-3-ol] | 10 to 100
22 | COc1ccc(-c2nnc(N[C@H]3C[C@@](C)(O)C3)n3cc(C)cc23)c(OC(F)(F)F)c1 [Compound 108, (1s,3s)-3-({1-[4-methoxy-2-(trifluoromethoxy)phenyl]-7-methylpyrrolo[1,2-d][1,2,4]triazin-4-yl}amino)-1-methylcyclobutan-1-ol] | 1 to 10

Now from value to compound:

Row | IC50 [nM] | SMILES
23 | 1 to 10 | COc1ccc(-c2nnc(N[C@H]3C[C@@](C)(O)C3)n3cncc23)c(OC(F)(F)F)c1 [Compound 219, (1s,3s)-3-({1-[4-methoxy-2-(trifluoromethoxy)phenyl]imidazo[1,5-d][1,2,4]triazin-4-yl}amino)-1-methylcyclobutan-1-ol]
24 | 1 to 10 | CCN1CCC[C@@H](Nc2nnc(-c3ccc(C(F)(F)F)cc3Cl)c3cc(C)nn23)C1 [Compound 375, 4-[2-chloro-4-(trifluoromethyl)phenyl]-N-[(3R)-1-ethylpiperidin-3-yl]-2-methylpyrazolo[1,5-d][1,2,4]triazin-7-amine]
25 | 1 to 10 | COc1ccc(-c2nnc(N[C@@H]3CCOC[C@H]3O)n3nc(C)cc23)c(CC(F)(F)F)c1 [Compound 384, (3S,4R)-4-({4-[4-methoxy-2-(2,2,2-trifluoroethyl)phenyl]-2-methylpyrazolo[1,5-d][1,2,4]triazin-7-yl}amino)oxan-3-ol]
26 | 1 to 10 | Cc1ccc(-c2nnc(N[C@H]3C[C@@](C)(O)C3)n3cccc23)c(CC(F)(F)F)c1 [Compound 158, (1s,3s)-1-methyl-3-({1-[4-methyl-2-(2,2,2-trifluoroethyl)phenyl]pyrrolo[1,2-d][1,2,4]triazin-4-yl}amino)cyclobutan-1-ol]
27 | 1 to 10 | CCN1CCC[C@@H](Nc2nnc(-c3ccc(Cl)cc3)c3cc(C)nn23)C1 [Compound 377, 4-(4-chlorophenyl)-N-[(3R)-1-ethylpiperidin-3-yl]-2-methylpyrazolo[1,5-d][1,2,4]triazin-7-amine]
28 | 1 to 10 | Cc1ncn2c(N[C@@H]3CCCC[C@H]3O)nnc(-c3ccc(C(F)(F)F)cc3CC(F)(F)F)c12 [Compound 280, (1R,2R)-2-({8-methyl-1-[2-(2,2,2-trifluoroethyl)-4-(trifluoromethyl)phenyl]imidazo[1,5-d][1,2,4]triazin-4-yl}amino)cyclohexan-1-ol]
29 | 1 to 10 | Cc1ccc(-c2nnc(N[C@@H]3CCCN(C)C3)n3cncc23)c(OC(F)F)c1 [Compound 202, 1-[2-(difluoromethoxy)-4-methylphenyl]-N-[(3R)-1-methylpiperidin-3-yl]imidazo[1,5-d][1,2,4]triazin-4-amine]
30 | 1 to 10 | O[C@H]1CCC[C@@H](Nc2nnc(-c3ccc(C4CC4)cc3CC(F)(F)F)c3cncn23)C1 [Compound 353, (1S,3R)-3-({1-[4-cyclopropyl-2-(2,2,2-trifluoroethyl)phenyl]imidazo[1,5-d][1,2,4]triazin-4-yl}amino)cyclohexan-1-ol]
31 | < 1 | CCN1C[C@H](F)C[C@@H](Nc2nnc(-c3ccc(C(F)(F)F)cc3OC(F)F)c3cc(C)nn23)C1 [Compound 356, 4-[2-(difluoromethoxy)-4-(trifluoromethyl)phenyl]-N-[(3R,5R)-1-ethyl-5-fluoropiperidin-3-yl]-2-methylpyrazolo[1,5-d][1,2,4]triazin-7-amine]
32 | < 1 | CCN1CCC[C@@H](Nc2nnc(-c3ccc(C(F)(F)F)cc3OC(F)(F)F)c3cccn23)C1 [Compound 119, N-[(3R)-1-ethylpiperidin-3-yl]-1-[2-(trifluoromethoxy)-4-(trifluoromethyl)phenyl]pyrrolo[1,2-d][1,2,4]triazin-4-amine]
33 | < 1 | COc1ccc(-c2nnc(NC(C)c3cccc(O)c3)n3cncc23)c(OC(F)(F)F)c1 (single isomer, unassigned) [Compound 247]

Source: patent US20250179078A1, “INHIBITORS OF NLRP3” (PTC THERAPEUTICS, INC., priority 2022, published 2025)
